Measured values taken from ChEMBL document CHEMBL4321845, “Discovery and Characterization of Potent Pan-Genotypic HCV NS5A Inhibitors Containing Novel Tricyclic Central Core Leading to Clinical Candidate” (J Med Chem, 2019).

How the values were obtained:
[1] = molecular target: T1, Nonstructural protein 5A (Hepatitis C virus) (UniProt Q5L478); assay: Inhibition of NS5A in HCV genotype 2a infected in human Huh7.5/J6/JFH1/EMCVIRES/hRlucNeo cells assessed as inhibition of replicon levels at 1 uM incubated for 72 hrs by luciferase reporter gene assay; details: Hepatitis C virus subtype 2a
T1 sequence (whole entry): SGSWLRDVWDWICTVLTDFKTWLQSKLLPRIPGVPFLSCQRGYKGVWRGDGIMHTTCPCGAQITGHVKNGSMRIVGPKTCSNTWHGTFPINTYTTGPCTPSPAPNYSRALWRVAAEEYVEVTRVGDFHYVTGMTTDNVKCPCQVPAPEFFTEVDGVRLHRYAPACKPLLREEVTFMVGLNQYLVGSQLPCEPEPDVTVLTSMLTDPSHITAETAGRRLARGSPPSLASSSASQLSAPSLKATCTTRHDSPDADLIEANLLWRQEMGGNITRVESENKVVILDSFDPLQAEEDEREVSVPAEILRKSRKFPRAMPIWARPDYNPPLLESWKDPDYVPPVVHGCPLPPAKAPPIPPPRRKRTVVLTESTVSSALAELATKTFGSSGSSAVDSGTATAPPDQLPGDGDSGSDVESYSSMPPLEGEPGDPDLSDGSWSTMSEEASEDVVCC

[2] = molecular target: T1, Nonstructural protein 5A (Hepatitis C virus); assay: Inhibition of NS5A in HCV genotype 1b infected in human HuH7.5/Con1/SG-Neo(I)-hRluc2aUb cells assessed as inhibition of replicon levels at 0.1 uM incubated for 72 hrs by luciferase reporter gene assay relative to control; details: Hepatitis C virus subtype 1b
[3] = molecular target: T1, Nonstructural protein 5A (Hepatitis C virus); assay: Inhibition of NS5A in HCV genotype 1b infected in human HuH7.5/Con1/SG-Neo(I)-hRluc2aUb cells assessed as inhibition of replicon levels at 1 uM incubated for 72 hrs by luciferase reporter gene assay relative to control; details: Hepatitis C virus subtype 1b
[4] = Drug level in liver of Wistar rat at 10 mg/kg, po measured at 4 hrs by LC-MS/MS analysis; type: ADME, organism-based; details: read-out: Drug uptake
[5] = Clearance in rat at 1 mg/kg, iv measured up to 24 hrs by LC-MS/MS analysis; type: ADME, organism-based; details: in vivo
[6] = Cytotoxicity in human HuH7 cells assessed as inhibition of cell growth at 3 uM incubated for 72 hrs by CCK8 assay relative to control; type: cell-based, Huh-7; details: read-out: GI
CYP2C9 = CYP2C9 (Homo sapiens, UniProt P11712); assay: Inhibition of CYP2C9 in pooled human liver microsomes at 10 uM pre-incubated for 5 mins before NADPH addition and measured after 10 mins by UPLC-MS/MS analysis relative to control; type: ADME
CYP3A4 = CYP3A4 (Homo sapiens, UniProt P08684); assay: Inhibition of CYP3A4 in pooled human liver microsomes at 10 uM pre-incubated for 5 mins before NADPH addition and measured after 10 mins by UPLC-MS/MS analysis relative to control; type: ADME
[7] = AUC(last) in rat at 1 mg/kg, iv measured up to 24 hrs by LC-MS/MS analysis; type: ADME, organism-based; set-up: dose 1 mg/kg, route intravenous, time 0 - last; details: in vivo
[8] = Volume of distribution at steady state in rat at 1 mg/kg, iv measured up to 24 hrs by LC-MS/MS analysis; type: ADME, organism-based; details: in vivo, read-out: Vdss
[9] = Cmax in rat at 10 mg/kg, po measured up to 24 hrs by LC-MS/MS analysis; type: ADME, organism-based; set-up: dose 10 mg/kg, route oral; details: in vivo
[10] = Cytotoxicity in human HepG2 cells assessed as inhibition of cell growth at 3 uM incubated for 72 hrs by CCK8 assay relative to control; type: cell-based; details: read-out: GI
[11] = AUC (last) in rat at 10 mg/kg, po measured up to 24 hrs by LC-MS/MS analysis; type: ADME, organism-based; set-up: dose 10 mg/kg, time 0 - last, route oral; details: in vivo
[12] = Ratio of dug level in liver to plasma of Wistar rat at 10 mg/kg, po measured at 4 hrs by LC-MS/MS analysis; type: ADME, organism-based
[13] = Drug metabolism in human liver microsomes assessed as metabolic rate at 1 uM preincubated for 5 mins before NADPH addition and measured up to 30 mins by LC-MS/MS analysis; type: ADME, Microsome; details: 0.5 h
[14] = Half life in rat at 1 mg/kg, iv measured up to 24 hrs by LC-MS/MS analysis; type: ADME, organism-based; details: in vivo
CYP2D6 = CYP2D6 (Homo sapiens, UniProt P10635); assay: Inhibition of CYP2D6 in pooled human liver microsomes at 10 uM pre-incubated for 5 mins before NADPH addition and measured after 10 mins by UPLC-MS/MS analysis relative to control; type: ADME
[15] = Drug level in plasma of Wistar rat at 10 mg/kg, po measured at 4 hrs by LC-MS/MS analysis; type: ADME, organism-based
[16] = Drug metabolism in rat liver microsomes assessed as metabolic rate at 1 uM preincubated for 5 mins before NADPH addition and measured up to 30 mins by LC-MS/MS analysis; type: ADME, Microsome; details: 0.5 h
[17] = Cytotoxicity in human HepG2 cells assessed as inhibition of cell growth at 10 uM incubated for 72 hrs by CCK8 assay relative to control; type: cell-based; details: read-out: GI
[18] = Cytotoxicity in human HEK293 cells assessed as inhibition of cell growth at 10 uM incubated for 72 hrs by CCK8 assay relative to control; type: cell-based; details: read-out: GI
[19] = Cytotoxicity in human HEK293 cells assessed as inhibition of cell growth at 3 uM incubated for 72 hrs by CCK8 assay relative to control; type: cell-based; details: read-out: GI
[20] = Oral bioavailability in rat at 10 mg/kg measured up to 24 hrs by LC-MS/MS analysis; type: ADME, organism-based; details: in vivo
[21] = Drug level in liver of Wistar rat at 10 mg/kg, po measured up to 8 hrs by LC-MS/MS analysis; type: ADME, organism-based; details: in vivo
[22] = Protein binding in rat plasma; type: ADME, cell-free; details: read-out: PPB
[23] = Protein binding in human plasma; type: ADME, cell-free; details: read-out: PPB
[24] = Half life in beagle dog at 1 mg/kg, iv measured up to 24 hrs by LC-MS/MS analysis; type: ADME, organism-based, Canis lupus familiaris; details: in vivo
[25] = Volume of distribution at steady state in beagle dog at 1 mg/kg, iv measured up to 24 hrs by LC-MS/MS analysis; type: ADME, organism-based, Canis lupus familiaris; details: in vivo, read-out: Vdss
[26] = Tmax in rat at 10 mg/kg, po measured up to 24 hrs by LC-MS/MS analysis; type: ADME, organism-based; details: in vivo
[27] = Cmax in rat at 30 mg/kg, po measured up to 24 hrs by LC-MS/MS analysis; type: ADME, organism-based; set-up: dose 30 mg/kg, route oral; details: in vivo
[28] = Tmax in rat at 100 mg/kg, po measured up to 24 hrs by LC-MS/MS analysis; type: ADME, organism-based; details: in vivo
[29] = AUC (last) in beagle dog at 10 mg/kg, po measured up to 24 hrs by LC-MS/MS analysis; type: ADME, organism-based, Canis lupus familiaris; set-up: dose 10 mg/kg, time 0 - last, route oral; details: in vivo
[30] = Cmax in rat at 100 mg/kg, po measured up to 24 hrs by LC-MS/MS analysis; type: ADME, organism-based; set-up: dose 100 mg/kg, route oral; details: in vivo
[31] = Cmax in beagle dog at 10 mg/kg, po measured up to 24 hrs by LC-MS/MS analysis; type: ADME, organism-based, Canis lupus familiaris; set-up: dose 10 mg/kg, route oral; details: in vivo
[32] = AUC (last) in rat at 30 mg/kg, po measured up to 24 hrs by LC-MS/MS analysis; type: ADME, organism-based; set-up: dose 30 mg/kg, time 0 - last, route oral; details: in vivo
[33] = Oral bioavailability in beagle dog at 10 mg/kg measured up to 24 hrs by LC-MS/MS analysis; type: ADME, organism-based, Canis lupus familiaris; details: in vivo
[34] = Clearance in beagle dog at 1 mg/kg, iv measured up to 24 hrs by LC-MS/MS analysis; type: ADME, organism-based, Canis lupus familiaris; details: in vivo
[35] = Tmax in rat at 30 mg/kg, po measured up to 24 hrs by LC-MS/MS analysis; type: ADME, organism-based; details: in vivo
[36] = AUC (last) in rat at 100 mg/kg, po measured up to 24 hrs by LC-MS/MS analysis; type: ADME, organism-based; set-up: dose 100 mg/kg, time 0 - last, route oral; details: in vivo
[37] = AUC(last) in beagle dog at 1 mg/kg, iv measured up to 24 hrs by LC-MS/MS analysis; type: ADME, organism-based, Canis lupus familiaris; set-up: dose 1 mg/kg, route intravenous, time 0 - last; details: in vivo

Chain of CYP2D6 (P10635 whole entry): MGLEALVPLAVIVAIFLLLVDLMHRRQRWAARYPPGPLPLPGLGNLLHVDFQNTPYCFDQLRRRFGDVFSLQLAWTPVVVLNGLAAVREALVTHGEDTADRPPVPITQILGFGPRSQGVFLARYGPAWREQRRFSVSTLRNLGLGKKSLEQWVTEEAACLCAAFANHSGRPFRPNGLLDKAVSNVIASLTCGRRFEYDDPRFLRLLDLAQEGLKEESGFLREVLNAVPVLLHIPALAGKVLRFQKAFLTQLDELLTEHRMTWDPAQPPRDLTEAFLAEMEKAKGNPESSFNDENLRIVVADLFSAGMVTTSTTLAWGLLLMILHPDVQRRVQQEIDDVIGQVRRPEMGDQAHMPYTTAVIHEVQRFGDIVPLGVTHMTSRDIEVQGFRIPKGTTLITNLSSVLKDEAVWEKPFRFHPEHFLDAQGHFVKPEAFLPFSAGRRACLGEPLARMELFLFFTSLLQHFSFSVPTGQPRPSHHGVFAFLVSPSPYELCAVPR
Chain of CYP3A4 (P08684 whole entry): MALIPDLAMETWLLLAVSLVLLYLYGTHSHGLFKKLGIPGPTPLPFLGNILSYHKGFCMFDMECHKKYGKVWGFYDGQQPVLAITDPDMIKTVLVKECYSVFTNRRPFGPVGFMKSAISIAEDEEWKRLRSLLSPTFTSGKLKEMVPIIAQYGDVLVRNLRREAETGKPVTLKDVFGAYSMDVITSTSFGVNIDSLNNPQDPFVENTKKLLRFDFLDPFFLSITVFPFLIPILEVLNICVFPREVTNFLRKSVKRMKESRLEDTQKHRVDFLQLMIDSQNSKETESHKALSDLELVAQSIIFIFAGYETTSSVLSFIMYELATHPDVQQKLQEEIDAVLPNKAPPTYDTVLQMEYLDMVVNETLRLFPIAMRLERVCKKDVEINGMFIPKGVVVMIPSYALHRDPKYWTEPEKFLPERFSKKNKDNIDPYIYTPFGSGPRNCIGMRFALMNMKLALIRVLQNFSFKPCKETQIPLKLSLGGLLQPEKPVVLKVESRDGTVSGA
Chain of CYP2C9 (P11712 whole entry): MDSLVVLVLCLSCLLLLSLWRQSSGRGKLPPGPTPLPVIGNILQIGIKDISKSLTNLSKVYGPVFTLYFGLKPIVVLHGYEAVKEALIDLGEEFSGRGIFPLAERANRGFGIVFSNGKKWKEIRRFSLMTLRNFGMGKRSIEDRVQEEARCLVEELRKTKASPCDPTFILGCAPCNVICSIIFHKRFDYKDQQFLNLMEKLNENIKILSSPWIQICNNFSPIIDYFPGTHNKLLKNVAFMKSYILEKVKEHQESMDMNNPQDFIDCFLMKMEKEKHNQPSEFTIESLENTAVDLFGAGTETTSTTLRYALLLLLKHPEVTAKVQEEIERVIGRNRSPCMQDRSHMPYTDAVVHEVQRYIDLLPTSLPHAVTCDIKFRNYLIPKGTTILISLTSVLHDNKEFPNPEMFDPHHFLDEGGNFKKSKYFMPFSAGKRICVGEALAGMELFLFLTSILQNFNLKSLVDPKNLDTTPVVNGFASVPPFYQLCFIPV

SMILES | inhibition [1] [%] | concentration at 4 h [4] [µM] | clearance [5] [mL/min/kg] | inhibition at 72 h, 3 µM [6] [%] | inhibition at 10 min, 10 µM (CYP2C9) [%] | inhibition at 10 min, 10 µM (CYP3A4) [%] | AUC(0-t) at 24 h [7] [µM·h] | Vd [8] [L/kg] | Cmax [9] [nM] | inhibition at 72 h, 3 µM [10] [%] | AUC(0-t) at 24 h [11] [µM·h] | Kp at 4 h [12] | Drug metabolism [13] [nmol/min/mg] | half-life [14] [min] | inhibition at 10 min, 10 µM (CYP2D6) [%] | concentration at 4 h [15] [nM] | Drug metabolism [16] [nmol/min/mg] | inhibition at 72 h, 10 µM [17] [%] | inhibition at 72 h, 10 µM [18] [%] | inhibition at 72 h, 3 µM [19] [%] | other results
COC(=O)N[C@H](C(=O)N1CCC[C@H]1c1ncc(-c2ccc3c(c2)CC2c4ccc(-c5cnc([C@@H]6CCCN6C(=O)[C@@H](NC(=O)OC)C(C)C)[nH]5)cc4CC32)[nH]1)C(C)C (some centres undefined) | 11 | – | – | – | – | – | – | – | – | – | – | – | – | – | – | – | – | – | – | – | inhibition [2]: 75%
COC(=O)N[C@H](C(=O)N1CCC[C@H]1c1ncc(-c2cc3c(cc2OC)C2(CC3(C)C)CC(C)(C)c3cc(-c4cnc([C@@H]5CCCN5C(=O)[C@@H](NC(=O)OC)C(C)C)[nH]4)c(OC)cc32)[nH]1)C(C)C | 13 | – | – | – | – | – | – | – | – | – | – | – | – | – | – | – | – | – | – | – | inhibition [3]: 79%
COC(=O)N[C@H](C(=O)N1CCC[C@H]1c1ncc(-c2ccc3c(c2)OCC(C)(C)COc2cc(-c4cnc([C@@H]5CCCN5C(=O)[C@@H](NC(=O)OC)C(C)C)[nH]4)ccc2-3)[nH]1)C(C)C | – | 7.6 | 17 | 4 | 0 | 0 | 1.1 | 2.3 | 1900 | 8 | 5.2 | 13 | 0.02 | 126 | 17 | 620 | 0.01 | 35 | 33 | 17 | bioavailability [20]: 47%; Drug uptake [21]: Active
COC(=O)N[C@H](C(=O)N1CCC[C@H]1c1ncc(-c2ccc3c(ccc4sc(-c5cnc([C@@H]6CCCN6C(=O)[C@@H](NC(=O)OC)C(C)C)[nH]5)nc43)c2)[nH]1)C(C)C | 0 | – | – | – | – | – | – | – | – | – | – | – | – | – | – | – | – | – | – | – | –
COC(=O)N[C@H](C(=O)N1CCC[C@H]1c1nc(Cl)c(-c2ccc3c(c2)OCC(C)(C)COc2cc(-c4[nH]c([C@@H]5CCCN5C(=O)[C@@H](NC(=O)OC)C(C)C)nc4Cl)ccc2-3)[nH]1)C(C)C | – | 7.1 | 37 | 25 | 29 | 6 | 0.43 | 10 | 500 | 23 | 2.4 | 11 | 0 | 228 | 6 | 640 | 0 | 27 | 63 | 44 | fraction unbound [22]: < 0.01; bioavailability [20]: 56%; fraction unbound [23]: < 0.01; Drug uptake [21]: Active
COC(=O)N[C@H](C(=O)N1CCC[C@H]1c1ncc(-c2ccc3c(c2)OCc2cc(-c4cnc([C@@H]5CCCN5C(=O)[C@@H](NC(=O)OC)C(C)C)[nH]4)sc2-3)[nH]1)C(C)C | – | 7.9 | 10 | 3 | 41 | 22 | 2 | 1.5 | 300 to 2000 | 0 | 2 to 6 | 5.5 | 0.02 | 114 | 13 | 1390 | 0.01 | 16 | 22 | 14 | half-life [24]: 180 min; Vd [25]: 2 L/kg; Tmax [26]: 2 to 4 h; Cmax [27]: 2000 nM; Tmax [28]: 2 to 6 h; AUC(0-t) at 24 h [29]: 40 µM·h; Cmax [30]: 7 µM; Cmax [31]: 3000 nM; AUC(0-t) at 24 h [32]: 28 µM·h; bioavailability [33]: 100%; clearance [34]: 7 mL/min/kg; Tmax [35]: 4 to 6 h; AUC(0-t) at 24 h [36]: 76 µM·h; AUC(0-t) at 24 h [37]: 3 µM·h; bioavailability [20]: 30%; Drug uptake [21]: Active
